From patent EP2878592B1, “SYNTHESIS OF AMIDE DERIVATIVES OF SOME NONSTEROIDAL ANTIINFLAMMATORY DRUGS AS POTENTIAL PRO-DRUGS” (Kücükgüzel, Ilkay, priority 2013, dated 2015)

Assays:
[1] = Partition coefficient (log P) study, chloroform / buffer, HPLC; type: physicochemical; conditions: 37°C, 24 hours
Procedure: 20 mg of amide compound is dissolved in 20 ml of chloroform. 10 mL of this mixture is drawn out (divided into two). This 10 ml of mixture is added to 20 ml with pH 1.2 buffer solution. Likewise the other 10 ml of mixture is added to 20 ml with pH 6.8 buffer solution. The tubes placed in a 37°C incubator are mixed for 24 hours.
After 24 hours the chloroform phase was removed and transferred to separate tubes. The chloroform is evaporated. After evaporation of chloroform, 10 mL of ACN is added and thoroughly mixed. 0.1 ml of the sample is taken out of the mixture with ACN and this sample is added to 10 ml with the mobile phase (S1, S2, S3) (Cn=1ug/ml)
The standard samples used in this study were prepared according to the method of preparation of standard samples given above.
• HPLC Column Type: ACE C18 reverse phase. • Flow Rate: 1 ml/min. • Wavelength: 210 nm

[2] = compared with the ibuprofen molecule; cited from earlier work
[3] = compared with ibuprofen, equimolar doses; cited from earlier work
[4] = pH 1.2 buffer solution / chloroform
[5] = pH 6.8 buffer solution / chloroform

C[C@H](C(=O)NC(CO)(CO)CO)c1cccc(C(=O)c2ccccc2)c1 [Compound 1b, (+)-(2S)-2-(3-Benzoylphenyl)-N-[1,3-dihydroxy-2-(hydroxymethyl)propan-2-yl]propanamide]
Log P (Experimental result) [1, 4]: -0.05 | Log P (Experimental result) [1, 5]: +0.05

CC(C)Cc1ccc(C(C)C(=O)NC(CO)(CO)CO)cc1 (centres unmarked) [Compound 2b, N-[1,3-dihydroxy-2-(hydroxmethyl)propan-2-yl]-2-(4-isobutylphenyl)propanamide]
Log P (Experimental result) [1, 4]: -0.12 | Log P (Experimental result) [1, 5]: -0.41

CC(C(=O)NC(CO)(CO)CO)c1ccc(-c2ccccc2)c(F)c1 (centres unmarked) [Compound 3b, N-[1,3-Dihydroxy-2-(hydroxymethyl)propan-2-yl]-2-(2-fluorobiphenyl-4-yl)propanamide]
Log P (Experimental result) [1, 4]: -0.14 | Log P (Experimental result) [1, 5]: -0.95

COc1ccccc1OC(=O)C(C)c1ccc(CC(C)C)cc1 (centres unmarked) [guiacol ester of ibuprofen]
gastrointestinal and acute toxicities [2]: much lower | effect in relieving edema and in lowering fever [3]: same effect
